In ChEMBL document CHEMBL1134065, “Structure-Activity study of retinoid agonists bearing substituted dicarba-closo-dodecaborane. Relation between retinoidal activity and conformation of two aromatic nuclei” (2001):

Experiments:
[1] = tested on: HL-60; assay: HL-60 differentiation-inducing activity at a dose of 10e-7 M; type: functional, Homo sapiens
[2] = target: T1, Retinoic acid receptor gamma (Homo sapiens) (UniProt P13631); assay: Agonistic activity on Retinoic acid receptor gamma by transcriptional activation in COS-1 cells incubated at 10e-6 M; type: functional, cell-based
T1 sequence (whole entry): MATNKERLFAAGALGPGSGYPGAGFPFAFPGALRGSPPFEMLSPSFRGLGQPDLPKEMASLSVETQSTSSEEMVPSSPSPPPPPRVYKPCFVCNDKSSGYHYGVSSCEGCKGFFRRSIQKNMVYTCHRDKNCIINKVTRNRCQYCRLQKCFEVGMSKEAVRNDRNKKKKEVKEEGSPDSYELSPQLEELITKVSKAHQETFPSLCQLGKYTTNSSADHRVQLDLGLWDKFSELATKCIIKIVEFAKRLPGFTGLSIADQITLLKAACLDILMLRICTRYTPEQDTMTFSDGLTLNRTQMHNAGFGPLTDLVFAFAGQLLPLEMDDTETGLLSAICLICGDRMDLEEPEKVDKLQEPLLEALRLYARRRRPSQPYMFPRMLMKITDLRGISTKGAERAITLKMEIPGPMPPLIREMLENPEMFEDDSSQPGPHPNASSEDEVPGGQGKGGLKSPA

[3] = tested on: HL-60; assay: HL-60 differentiation-inducing activity at a dose of 10e-8 M; type: functional, Homo sapiens
[4] = target: T1, Retinoic acid receptor gamma (Homo sapiens); assay: Agonistic activity on Retinoic acid receptor gamma by transcriptional activation in COS-1 cells incubated at 10e-9 M; type: functional, cell-based
[5] = target: T1, Retinoic acid receptor gamma (Homo sapiens); assay: Agonistic activity on Retinoic acid receptor gamma by transcriptional activation in COS-1 cells incubated at 10e-8 M; type: functional, cell-based
[6] = target: T1, Retinoic acid receptor gamma (Homo sapiens); assay: Agonistic activity on Retinoic acid receptor gamma by transcriptional activation in COS-1 cells incubated at 10e-7 M; type: functional, cell-based
[7] = tested on: HL-60; assay: HL-60 differentiation-inducing activity at a dose of 10e-9 M; type: functional, Homo sapiens
[8] = tested on: HL-60; assay: HL-60 differentiation-inducing activity at a dose of 10e-9.5 M; type: functional, Homo sapiens
[9] = tested on: HL-60; assay: HL-60 differentiation-inducing activity at a dose of 10e-10 M; type: functional, Homo sapiens

Row | Structure (SMILES) | Differentiated cells [1] | Relative luciferase response [2] | Differentiated cells [3] | Relative luciferase response [4] | Relative luciferase response [5] | Relative luciferase response [6] | Differentiated cells [7] | Differentiated cells [8] | Differentiated cells [9]
1 | CC1=C(/C=C/C(C)=C/C=C/C(C)=C/C(=O)O)C(C)(C)CCC1 [TRETINOIN] | ~85% | 30 | ~70% | 6 | 12 | 14 | ~2% | – | –
2 | CC1(C)CCC(C)(C)c2cc(NC(=O)c3ccc(C(=O)O)cc3)ccc21 [TAMIBAROTENE] | – | – | ~85% | – | – | – | ~75% | ~40% | ~5%
